Laboratory results reported in EP0409499A2, “Pharmaceutical compositions” (BRITISH TECHNOLOGY GROUP LIMITED, priority 1989, dated 1991).

Assays:
[1] = tested on: growing rats; assay: Cardioprotective effect against the toxicity of doxorubicin (heart rate and cardiac output in rats); type: in vivo; settings: relative to saline + saline control
Procedure: The following compounds were selected to be tested for their cardioprotetive effect against the toxicity of doxorubicin. The compounds tested were: 1,3-bis(3,5-dioxopiperazin-1-yl)-propane 1,2-bis(2-methyl-3,5-dioxopiperazin-1-yl)-ethane 1,2-bis(3,5-dioxopiperazin-1-yl)-butane.
Groups of growing rats were injected intra-peritoneally (i.p.) with 100 mg/kg or 400 mg/kg body weight of the compound. After 1 hour, doxorubicin solution was injected intravenously (i.v.) at a concentration of 4 mg/kg body weight. Other groups of rats were injected with saline (i.p.) followed after 1 hour by saline (i.v.) or with saline (i.p.) followed after 1 hour by doxorubicin solution (i.v.) as controls. The cardiotoxicity of doxorubicin and the protection supplied by the compounds was assessed by measuring the heart rate and cardiac output relative to the saline + saline control. Cardiac output was measured by injecting ^99mTc into the heart and measuring the rate at which the isotope was cleared from the heart. Heart rate was measured in the standard manner.
The results are shown in the Table below from which it will be seen that each of the compounds results in an improvement in cardiac output and heart rate as compared with the depressed values which occur when only doxorubicin is used. TABLE

[2] = result in words, Herman et al, Adv. Pharmacol. Chemother. 1982, 19, 249; cited from earlier work
[3] = result in words, Herman et al, Res. Commun. Chem. Pathol. Pharmacol. 1985, 48, 39; cited from earlier work
[4] = compound 100 mg/kg i.p., 1 hour later doxorubicin 4 mg/kg i.v.
[5] = compound 100 mg/kg i.p., 1 hour later doxorubicin 4 mg/kg i.v., 99mTc clearance from the heart
[6] = saline i.p., 1 hour later doxorubicin 4 mg/kg i.v. alone

Structure (SMILES) | Relative Heart Rate [1, 4] | Relative Cardiac Output [1, 5] | also measured
CCC(CN1CC(=O)NC(=O)C1)N1CC(=O)NC(=O)C1 (racemic) [1,2-bis(3,5-dioxopiperazin-1-yl)-butane, dl-1,2-bis(3,5-dioxopiperazin-1-yl)-butane] | 0.98 ± 0.03 | 0.70 ± 0.05 | Relative Heart Rate ([1]; compound 400 mg/kg i.p., 1 hour later doxorubicin 4 mg/kg i.v.): 0.92 ± 0.04; Relative Cardiac Output ([1]; compound 400 mg/kg i.p., 1 hour later doxorubicin 4 mg/kg i.v., 99mTc clearance from the heart): 0.67 ± 0.05
CC1C(=O)NC(=O)CN1CCN1CC(=O)NC(=O)C1C (stereo not drawn) [1,2-bis(2-methyl-3,5-dioxopiperazin-1-yl)-ethane] | 0.99 ± 0.03 | 0.62 ± 0.05 | 
O=C1CN(CCCN2CC(=O)NC(=O)C2)CC(=O)N1 [1,3-bis(3,5-dioxopiperazin-1-yl)-propane] | 0.81 ± 0.12 | 0.56 ± 0.06 | 
CC(CN1CC(=O)NC(=O)C1)N1CC(=O)NC(=O)C1 (stereo not drawn) [ICRF 159] |  |  | reducing high dose daunorubicin toxicity versus doxorubicin toxicity [2]: consistently more effective in reducing high dose daunorubicin toxicity than doxorubicin toxicity
O=C1CN(CCN2CC(=O)N(CN3CCOCC3)C(=O)C2)CC(=O)N1CN1CCOCC1 [bimolane] |  |  | protective effect against acute daunorubicin toxicity [3]: give protection against the lethal effects of daunorubicin
COc1cccc2c1C(=O)c1c(O)c3c(c(O)c1C2=O)C[C@@](O)(C(=O)CO)C[C@@H]3O[C@H]1C[C@H](N)[C@H](O)[C@H](C)O1 [doxorubicin, reference compound] |  |  | Relative Cardiac Output [1, 6]: 0.41 ± 0.04; Relative Heart Rate [1, 6]: 0.65 ± 0.19
